The source of these data is patent US6667303B1, “Aryl substituted 1,4-diazepanes and method of use thereof” (Wyeth, priority 2001, dated 2003).

Read-outs that look alike come from different tables or passages of the source.

Test [1] concerns the target T1, human 5-hydroxytryptamine2C (h5HT2C) receptor (Homo sapiens, UniProt P28335).
T1 construct: expressed in transfected cells; host or cells: CHO (Chinese Hamster Ovary) cells; membrane preparation
T1 sequence (P28335 33-458): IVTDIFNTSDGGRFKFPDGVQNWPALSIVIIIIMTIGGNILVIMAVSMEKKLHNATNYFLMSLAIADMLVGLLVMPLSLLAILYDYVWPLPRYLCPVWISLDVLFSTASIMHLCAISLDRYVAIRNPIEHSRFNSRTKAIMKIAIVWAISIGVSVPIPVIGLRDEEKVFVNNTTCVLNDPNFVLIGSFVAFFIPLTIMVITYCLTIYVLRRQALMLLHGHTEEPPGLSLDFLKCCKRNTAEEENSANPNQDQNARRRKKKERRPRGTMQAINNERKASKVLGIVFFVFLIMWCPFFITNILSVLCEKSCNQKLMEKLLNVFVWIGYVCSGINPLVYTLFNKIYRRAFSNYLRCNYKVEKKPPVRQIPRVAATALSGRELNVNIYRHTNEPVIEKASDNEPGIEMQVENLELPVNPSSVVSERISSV
The test is described as follows: 5HT2C receptor binding assay ([125I] DOI displacement). On the procedure: To determine for compounds of Formula (I) the affinity for the 5HT2C receptor, the following 5HT2C receptor binding assay was performed. A CHO (Chinese Hamster Ovary) cell line transfected with the cDNA expressing the human 5-hydroxytryptamine2C (h5HT2C) receptor was maintained in DMEM (Dulbecco's Modified Eagle Media) supplied with fetal calf serum, glutamine, and the markers: guaninephosphoribosyl transferase (GTP) and hypoxanthinethymidine (HT). The cells were allowed to grow to confluence in large culture dishes with intermediate changes of media and splitting. Upon reaching confluence, the cells were harvested by scraping. The harvested cells were suspended in half volume of fresh physiological phosphate buffered saline (PBS) solution and centrifuged at low speed (900×g). This operation was repeated once more. The collected cells were then homogenized with a polytron at setting #7 for 15 sec in ten volumes of 50 mM Tris.HCl, pH 7.4 and 0.5 mM EDTA. The homogenate was centrifuged at 900×g for 15 min to remove nuclear particles and other cell debris. The pellet was discarded and the supernatant fluid recentrifuged at 40,000×g for 30 min. The resulting pellet was resuspended in a small volume of Tris.HCl buffer and the tissue protein content was determined in aliquots of 10-25 microliter (μl) volumes. Bovine Serum Albumin (BSA) was used as the standard in the protein determination by the method of Lowry et al., (J. Biol. Chem., 193:265 (1951)). The volume of the suspended cell membranes was adjusted with 50 mM Tris.HCl buffer containing: 0.1% ascorbic acid, 10 mM pargyline and 4 mM CaCl2 to give a tissue protein concentration of 1-2 mg per ml of suspension. The preparation membrane suspension (many times concentrated) was aliquoted in 1 ml volumes and stored at −70° C. until used in subsequent binding experiments.
Binding experiments were performed in a 96 well microtiter plate format, in a total volume of 200 μl. To each well was added: 60 μl of incubation buffer made in 50 mM Tris.HCl buffer, pH 7.4 and containing 4 mM CaCl2; 20 μl of […] DOI [1-(4-iodo-2,5-dimethoxyphenyl)-2-aminopropane] (S.A., 2200 Ci/mmol, NEN Life Science).
DOI. The reaction was initiated by the final addition of 100.0 μl of tissue suspension containing 50 μg of receptor protein. Nonspecific binding was measured in the presence of 1 μM unlabeled DOI added in 20.0 μl volume. Test compounds are added in […]. The mixture was incubated at room temperature for 60 min. The incubation was stopped by rapid filtration. The bound ligand-receptor complex was filtered off on a 96 well unifilter with a Packard® Filtermate 196 Harvester. The bound complex caught on the filter disk was dried in a vacuum oven heated to 60° C. and the radioactivity measured by liquid scintillation with 40 μl Microscint-20 scintillant in a Packard TopCount® equipped with six (6) photomultiplier detectors.
Description of this method can be found in Sanders-Bush, E. et al., Putative selective 5-HT2C antagonists block serotonin 5-HT1C receptors in the choroid plexus, J. Pharmacol. Exper. Ther., 247: 169-173 (1988), and Akiyoshi, J., et al., Effects of antidepressants on intracellular calcium mobilization in CHO cells transfected with the human 5-HT2C receptors, Biol. Psychiatry, 39:1000-1008 (1996).
Specific binding is defined as the total radioactivity bound less the amount bound in the presence of 1 μM unlabeled DOI. Binding in the presence of varying concentrations of test drugs was expressed as percent of specific binding in the absence of drug. […] Alternatively, a linear regression line of decline of data points was plotted, from which the IC50 value was read off the curve and the Ki value determined by solving the following equation: [formula]

For test [2], the target named is T2, human serotonin 5HT2C receptor (Homo sapiens, UniProt P28335).
T2 construct: expressed in transfected cells; host or cells: CHO (Chinese Hamster Ovary) cells; membrane preparation
T2 sequence (P28335 33-458): T1 sequence (P28335 33-458)
In words: saturation binding with increasing concentrations of [125I] DOI. On the procedure: To determine for compounds of Formula (I) the affinity for the 5HT2C receptor, the following 5HT2C receptor binding assay was performed. A CHO (Chinese Hamster Ovary) cell line transfected with the cDNA expressing the human 5-hydroxytryptamine2C (h5HT2C) receptor was maintained in DMEM (Dulbecco's Modified Eagle Media) supplied with fetal calf serum, glutamine, and the markers: guaninephosphoribosyl transferase (GTP) and hypoxanthinethymidine (HT). The cells were allowed to grow to confluence in large culture dishes with intermediate changes of media and splitting. Upon reaching confluence, the cells were harvested by scraping. The harvested cells were suspended in half volume of fresh physiological phosphate buffered saline (PBS) solution and centrifuged at low speed (900×g). This operation was repeated once more. […] The resulting pellet was resuspended in a small volume of Tris.HCl buffer and the tissue protein content was determined in aliquots of 10-25 microliter (μl) volumes. […]
The dissociation constant, KD of [^125I] […] Nonspecific binding was measured in the presence of 1 μM unlabeled DOI added in 20.0 μl volume. […] The bound complex caught on the filter disk was dried in a vacuum oven heated to 60° C. and the radioactivity measured by liquid scintillation with 40 μl Microscint-20 scintillant in a Packard TopCount® equipped with six (6) photomultiplier detectors.

The mark [3] stands for this setting: membranes of CHO cells expressing h5HT2C, radioligand [125I] DOI, room temperature, 60 min, read-out: 5HT2C Binding Affinity Ki.

As to `COc1ccc(CN2C(=O)c3cccc4c(N5CCCN(CCCc6ccccc6)CC5)ccc2c34)cc1` [Example 11], in test [1] (setting [3]), the Ki (as a rule, a dissociation constant, usually derived from enzyme kinetics or from competition with a known ligand) is 165 nM.
Still for that read-out and setting: as for `CCCN1CCCN(c2ccc3c4c(cccc24)C(=O)N3Cc2ccc(OC)cc2)CC1` [Example 88, 1-(4-methoxybenzyl)-6-(4-propyl-1,4-diazepan-1-yl)benzo[cd]indol-2(1H)-one], the figure is 243 nM.
Consider `COc1cc(CC(C)N)c(OC)cc1I` (stereo not shown) [[^125I] DOI, 1-(4-iodo-2,5-dimethoxyphenyl)-2-aminopropane], for which the Kd (usually the equilibrium constant for the complex coming apart) in test [2] was determined as 0.4 nM.
Take `COc1ccc(CN2C(=O)c3cccc4c(N5CCCN(CC(C)(C)C)CC5)ccc2c34)cc1` [Example 5, 1-(4-methoxybenzyl)-6-(4-neopentyl-1,4-diazepan-1-yl)benzo[cd]indol-2(1H)-one]: the Ki in test [1] (setting [3]) amounted to 132 nM.
On the same count and under the same terms, under `O=C1c2cccc3c(N4CCCN(CCc5ccccc5)CC4)ccc(c23)N1CC1CCC1` [Example 28, 1-(cyclobutylmethyl)-6-[4-(2-phenylethyl)-1,4-diazepan-1-yl]benzo[cd]indol-2(1H)-one] stands 178 nM; under `COc1ccc(CN2C(=O)c3cccc4c(N5CCCN(CC6CCC6)CC5)ccc2c34)cc1` [Example 13, 6-[4-(cyclobutylmethyl)-1,4-diazepan-1-yl]-1-(4-methoxybenzyl)benzo[cd]indol-2(1H)-one], 257 nM; under `CCCCCN1CCCN(c2ccc3c4c(cccc24)C(=O)N3CC)CC1` [Example 44, 1-ethyl-6-(4-pentyl-1,4-diazepan-1-yl)benzo[cd]indol-2(1H)-one], 247 nM.
Compound `O=C1c2cccc3c(N4CCCN(CC5CCC5)CC4)ccc(c23)N1CC1CCC1` [Example 32, 1-(cyclobutylmethyl)-6-[4-(cyclobutylmethyl)-1,4-diazepan-1-yl]benzo[cd]indol-2(1H)-one] registered a Ki in test [1] of 256 nM.
The same measure, in the same setting: under `CC(C)CN1CCCN(c2ccc3c4c(cccc24)C(=O)N3CC2CCC2)CC1` [Example 24, 1-(cyclobutylmethyl)-6-(4-isobutyl-1,4-diazepan-1-yl)benzo[cd]indol-2(1H)-one] stands 260 nM.
In test [1], `C=CCN1CCCN(c2ccc3c4c(cccc24)C(=O)N3CC2CCC2)CC1` [Example 22, 6-(4-allyl-1,4-diazepan-1-yl)-1-(cyclobutylmethyl)benzo[cd]indol-2(1H)-one] yielded a Ki of 241 nM.
As to `O=C1c2cccc3c(N4CCCN(CCc5ccccc5)CC4)ccc(c23)N1CCCC(F)(F)F` [Example 85, 6-[4-(2-phenylethyl)-1,4-diazepan-1-yl]-1-(4,4,4-trifluorobutyl)benzo[cd]indo-2(1H)-one], in test [1] (setting [3]), the Ki came to 112 nM.
For the compound `CCCCCN1CCCN(c2ccc3c4c(cccc24)C(=O)N3CCCC(F)(F)F)CC1` [Example 80, 6-(4-pentyl-1,4-diazepan-1-yl)-1-(4,4,4-trifluorobutyl)benzo[cd]indol-2(1H)-one], in test [1], the Ki turned out to be 190 nM.
In test [1], `COc1cc(CC(C)N)c(OC)cc1I` (stereo not shown) [DOI, 1-(4-iodo-2,5-dimethoxyphenyl)-2-aminopropane, reference compound] displayed a Ki of 19.5 nM.
